Our source for the TGI and GI50 values is PubChem BioAssay (NCI).

The structures appear in SMILES notation.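 Exposure lasted 48 hours, with cells grown in 96-well plates and compounds tested at five concentrations. GI50 marks 50% less growth. TGI denotes the concentration required for complete inhibition of growth.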

Test systems include CCRF-CEM leukemia; HCT-15 colon; HL-60(TB) leukemia; MOLT-4 leukemia; NCI-H460 lung; RPMI-8226 leukemia; SF-295 CNS; SF-539 CNS; SK-MEL-28 melanoma; SW-620 colon.
Holding throughout (experiment): inhibition of tumour cell growth, NCI panel, 48 h

For `N#C/C(=C\c1cc2ccccc2c2ccccc12)c1ccccc1`, the TGI in the assay on CCRF-CEM leukemia is 36.2 µM; in the assay with HCT-15 colon it was 39.4 µM; in the assay on HL-60(TB) leukemia, 14.8 µM; with MOLT-4 leukemia, 28 µM; in the assay on NCI-H460 lung it was greater than 36.1 µM; in the assay on RPMI-8226 leukemia it was greater than 51.1 µM. In addition, the TGI in the assay on SF-295 CNS was 19.9 µM; in the assay on SF-539 CNS it was 19.8 µM; with SK-MEL-28 melanoma, greater than 100 µM; with SW-620 colon it was 24.9 µM.
For the molecule `CCc1oc2ccccc2c1C(=O)c1cc(I)c(O)c(I)c1`, the GI50 in the assay with CCRF-CEM leukemia is 2.05 µM; with HCT-15 colon it was 2.26 µM; with HL-60(TB) leukemia, 1.62 µM; in the assay on MOLT-4 leukemia it was 3.33 µM; in the assay on NCI-H460 lung, 2.63 µM; with RPMI-8226 leukemia, 2.33 µM. Also, the GI50 with SF-295 CNS was 2.05 µM; in the assay with SF-539 CNS it was 2.28 µM; in the assay on SK-MEL-28 melanoma it was 8.45 µM; in the assay on SW-620 colon, 2.39 µM. Moreover, the TGI with CCRF-CEM leukemia amounted to 15.4 µM; with HCT-15 colon it was 14.1 µM; in the assay on HL-60(TB) leukemia it was 8.74 µM; in the assay with MOLT-4 leukemia, 26.6 µM; in the assay on NCI-H460 lung, 8.94 µM; in the assay on RPMI-8226 leukemia it was 30.5 µM. Further, the TGI with SF-295 CNS amounted to 7.65 µM; in the assay on SF-539 CNS it was 10.4 µM; with SK-MEL-28 melanoma, 21.6 µM; in the assay on SW-620 colon it was 12.6 µM.
Turning to `COc1cc2c3c(n(CCCCOC(=O)C(Cl)(Cl)Cl)c(=O)c2cc1OC)-c1cc2c(cc1C3=O)OCO2`, the GI50 was 10.5 µM with CCRF-CEM leukemia; greater than 100 µM in the assay on HCT-15 colon; greater than 100 µM with HL-60(TB) leukemia; 5.67 µM in the assay on MOLT-4 leukemia; 2.41 µM in the assay with NCI-H460 lung; greater than 100 µM in the assay on RPMI-8226 leukemia. The GI50 in the assay with SF-295 CNS was 8.71 µM; in the assay on SF-539 CNS, 60.1 µM; in the assay on SK-MEL-28 melanoma, greater than 100 µM; in the assay with SW-620 colon, 85.5 µM. Also, the TGI in the assay on CCRF-CEM leukemia, with HCT-15 colon, in the assay with HL-60(TB) leukemia, in the assay on MOLT-4 leukemia, with NCI-H460 lung and in the assay on RPMI-8226 leukemia was greater than 100 µM throughout. Moreover, the TGI in the assay on SF-295 CNS, in the assay on SF-539 CNS, in the assay on SK-MEL-28 melanoma and with SW-620 colon was greater than 100 µM in each case.
In the case of `Cn1cnc([N+](=O)[O-])c1[Se]c1nc(N)nc2c1ncn2C1OC(CO)C(O)C1O` (centres undefined), the TGI in the assay with CCRF-CEM leukemia, in the assay with HCT-15 colon, in the assay with HL-60(TB) leukemia, with MOLT-4 leukemia, in the assay with NCI-H460 lung and in the assay on RPMI-8226 leukemia was greater than 100 µM each time. The TGI in the assay on SF-295 CNS, in the assay with SF-539 CNS, in the assay with SK-MEL-28 melanoma and with SW-620 colon was greater than 100 µM throughout.
For `CCOC(=O)c1c(C)nc2c(c1N)/C(=C/c1ccc(OC)cc1)C(=O)N2Cc1ccc(F)cc1`, the GI50 is 0.109 µM in the assay on CCRF-CEM leukemia; 0.127 µM with HCT-15 colon; 0.14 µM in the assay with HL-60(TB) leukemia; 0.221 µM with MOLT-4 leukemia; 0.257 µM in the assay on NCI-H460 lung; 0.224 µM in the assay with RPMI-8226 leukemia. Also, the GI50 in the assay on SF-295 CNS was 1.37 µM; in the assay with SF-539 CNS, 0.189 µM; with SK-MEL-28 melanoma, 0.183 µM; in the assay with SW-620 colon, 0.14 µM. For the same molecule, the TGI in the assay with CCRF-CEM leukemia came to 0.514 µM; in the assay on HCT-15 colon, 0.543 µM; in the assay with HL-60(TB) leukemia, 0.474 µM; with MOLT-4 leukemia, 0.745 µM; in the assay with NCI-H460 lung, 0.744 µM; in the assay on RPMI-8226 leukemia, 0.653 µM. In addition, the TGI in the assay with SF-295 CNS is 3.59 µM; with SF-539 CNS, 0.457 µM; in the assay with SK-MEL-28 melanoma, 0.374 µM; in the assay with SW-620 colon, 0.349 µM.
As to `COc1ccc(/C(Cl)=C(\C=O)c2ccc([N+](=O)[O-])cc2)cc1`, the TGI with CCRF-CEM leukemia was 23.2 µM; in the assay with HCT-15 colon, greater than 70.3 µM; in the assay on HL-60(TB) leukemia, 10.7 µM; in the assay on MOLT-4 leukemia, 7.24 µM; in the assay with NCI-H460 lung, greater than 100 µM; in the assay on RPMI-8226 leukemia, 8 µM. Further, the TGI with SF-295 CNS was 34.6 µM; in the assay on SF-539 CNS it was 32.2 µM; in the assay with SK-MEL-28 melanoma, greater than 93.8 µM; in the assay with SW-620 colon it was greater than 49.1 µM.
As to `COC(=O)c1c(C)[nH]c(/C=C2\N=C(c3ccc[nH]3)C=C2OC)c1C`, the GI50 in the assay on CCRF-CEM leukemia is 0.0501 µM; in the assay with HCT-15 colon, 0.0375 µM; with HL-60(TB) leukemia, 0.164 µM; with MOLT-4 leukemia it was 0.0495 µM; in the assay on NCI-H460 lung, 0.147 µM; in the assay with RPMI-8226 leukemia, 0.856 µM. The GI50 in the assay on SF-295 CNS is 0.983 µM; in the assay with SF-539 CNS it was 0.756 µM; with SK-MEL-28 melanoma, 0.685 µM; in the assay with SW-620 colon, 0.0365 µM. For the same molecule, the TGI in the assay on CCRF-CEM leukemia was greater than 100 µM; with HCT-15 colon, 1.24 µM; with HL-60(TB) leukemia, 2.33 µM; in the assay with MOLT-4 leukemia it was greater than 36.5 µM; with NCI-H460 lung it was greater than 100 µM; in the assay with RPMI-8226 leukemia, 4.98 µM. Further, the TGI was 3.44 µM with SF-295 CNS, 2.29 µM in the assay with SF-539 CNS and 2.36 µM in the assay with SK-MEL-28 melanoma.
Regarding `COc1ccc(-c2nnc(COc3ccc(NC(=O)Nc4ccc(Cl)c(C(F)(F)F)c4)cc3F)o2)cc1`, the GI50 in the assay on CCRF-CEM leukemia is 3.06 µM; in the assay with HCT-15 colon, 2.74 µM; in the assay on HL-60(TB) leukemia it was 2.41 µM; in the assay with MOLT-4 leukemia, 2.39 µM; in the assay with NCI-H460 lung it was 2.26 µM; in the assay on RPMI-8226 leukemia, 1.53 µM. The GI50 with SF-295 CNS is 2.48 µM; with SF-539 CNS it was 5.01 µM; in the assay with SK-MEL-28 melanoma, 5.27 µM; in the assay with SW-620 colon it was 3.42 µM. Further, the TGI is 40 µM in the assay with CCRF-CEM leukemia; 33 µM with HCT-15 colon; 6.12 µM in the assay with HL-60(TB) leukemia; 11.6 µM in the assay on MOLT-4 leukemia; 5.56 µM in the assay with NCI-H460 lung; 5 µM with RPMI-8226 leukemia. In addition, the TGI is 9.06 µM with SF-295 CNS, 19.6 µM with SF-539 CNS, 54.6 µM in the assay with SK-MEL-28 melanoma and 27.2 µM with SW-620 colon.
